Data reported in publication PMC10682503, “Structural and functional basis of inositol hexaphosphate stimulation of NHEJ through stabilization of Ku-XLF interaction” (Nucleic Acids Research, 2023).

How the values were obtained:
[1] = molecular target: T1, Ku-2E (Ku70-K357E, Ku80-K481E) (Homo sapiens, UniProt P12956+P13010, K357E/K481E); assay: ITC, Ku-2E mutant with IP6; type: binding
T1 construct: 10x His-tag with TEV site (same vector as KuFL) (N); made in house; host or cells: Sf21 insect cells
Description: (§1) Purification of Ku full-length (KuFL) for cryo-EM experiments was carried out as described previously ([5]). Expression and purification of KuFL for biophysical experiments was carried out as described previously ([20]). The full-length human Ku heterodimer subunits (Ku70 1–609, Ku80 1–732) were cloned into a Multibac vector ([21]). The construct has a 10× His-tag and a TEV site on the N-terminus of Ku80 and no-tag on Ku70. Protein production was initiated in Sf21 cells by infection with the baculovirus stock at MOI of 5 × 10^−3 and cells were collected 5–6 days after the infection (3–4 days after the proliferation arrest). Cells were sonicated and the supernatant was incubated with Benzonase (300 units for 30 min at 4°C). The Ku heterodimer was purified on a NiNTA-Agarose affinity column (Protino, Macherey Nagel) with a 1 M NaCl wash step to remove DNA excess. The eluted Ku was then bound onto an anion exchange column (Resource Q, Cytiva) equilibrated in 20 mM Tris pH 8.0, 50 mM NaCl, 50 mM KCl, 10 mM β-mercaptoethanol and eluted with a salt gradient. […]
(§2) Calorimetry. Interactions between KuFL and inositol phosphates (IPs) (IP6 and IP6 analogues) were determined by Isothermal Titration Calorimetry (ITC) using a VP-ITC calorimeter (Malvern). […] The free energy of binding (ΔG) and the entropy (ΔS) were determined using the classical thermodynamic formula, ΔG = - RT ln(Ka) and ΔG = ΔH - TΔS. […]

[2] = molecular target: T2, Ku-4E (Ku70 H359E-H360E/Ku80 K413E H414E) (Homo sapiens, UniProt P12956+P13010, H359E/H360E/H414E/K413E); assay: ITC, Ku-4E mutant with IP6; type: binding
T2 construct: 10x His-tag with TEV site (same vector as KuFL) (N); made in house; host or cells: Sf21 insect cells
Description: as §1, §2

[3] = molecular target: T2, Ku-4E (Ku70 H359E-H360E/Ku80 K413E H414E); assay: nanoDSF thermal stability of Ku-4E; conditions: Ku-4E with DNA
c-NHEJ = conditions: cited from earlier work

T2 sequence (P12956 whole entry H359E/H360E): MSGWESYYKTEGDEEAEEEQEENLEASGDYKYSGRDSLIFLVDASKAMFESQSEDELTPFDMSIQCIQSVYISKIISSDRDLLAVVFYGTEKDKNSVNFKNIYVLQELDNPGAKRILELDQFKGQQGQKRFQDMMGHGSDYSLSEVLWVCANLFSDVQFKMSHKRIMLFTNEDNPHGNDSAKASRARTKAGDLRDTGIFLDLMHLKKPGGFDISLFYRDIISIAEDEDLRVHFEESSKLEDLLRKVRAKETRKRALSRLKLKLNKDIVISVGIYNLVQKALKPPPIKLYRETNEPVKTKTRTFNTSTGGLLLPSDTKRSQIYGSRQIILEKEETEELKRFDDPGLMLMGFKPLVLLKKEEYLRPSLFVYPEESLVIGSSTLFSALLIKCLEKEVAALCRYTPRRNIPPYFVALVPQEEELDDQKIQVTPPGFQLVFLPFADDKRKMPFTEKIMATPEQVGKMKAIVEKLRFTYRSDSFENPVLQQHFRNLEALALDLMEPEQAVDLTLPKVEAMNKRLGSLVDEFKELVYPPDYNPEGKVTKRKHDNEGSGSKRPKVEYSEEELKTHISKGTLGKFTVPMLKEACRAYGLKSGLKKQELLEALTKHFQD
T2 sequence (P13010 whole entry K413E/H414E): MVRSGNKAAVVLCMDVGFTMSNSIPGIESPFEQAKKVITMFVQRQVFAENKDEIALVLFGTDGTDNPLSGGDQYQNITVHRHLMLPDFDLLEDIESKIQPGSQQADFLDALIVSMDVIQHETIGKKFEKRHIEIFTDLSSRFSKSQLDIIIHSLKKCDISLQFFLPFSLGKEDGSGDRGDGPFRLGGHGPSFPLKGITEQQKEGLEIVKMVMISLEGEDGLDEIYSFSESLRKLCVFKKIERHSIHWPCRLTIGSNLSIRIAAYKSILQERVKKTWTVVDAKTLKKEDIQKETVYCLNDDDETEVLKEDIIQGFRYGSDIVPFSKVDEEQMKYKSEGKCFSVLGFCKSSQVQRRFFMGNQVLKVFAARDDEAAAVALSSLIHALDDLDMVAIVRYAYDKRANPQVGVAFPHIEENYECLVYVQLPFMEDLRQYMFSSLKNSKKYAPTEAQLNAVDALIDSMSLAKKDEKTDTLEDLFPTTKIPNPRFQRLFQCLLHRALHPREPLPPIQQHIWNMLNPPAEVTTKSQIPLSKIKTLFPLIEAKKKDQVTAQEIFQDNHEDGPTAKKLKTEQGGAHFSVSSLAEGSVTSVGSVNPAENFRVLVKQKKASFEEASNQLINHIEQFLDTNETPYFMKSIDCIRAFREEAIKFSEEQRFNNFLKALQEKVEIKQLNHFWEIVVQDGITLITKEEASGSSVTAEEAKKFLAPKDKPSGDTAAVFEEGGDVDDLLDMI
T1 sequence (P12956 whole entry K357E): as the sequence (P12956 whole entry H359E/H360E) above, with K357E, E359H, E360H counted along it
T1 sequence (P13010 whole entry K481E): as the sequence (P13010 whole entry K413E/H414E) above, with E413K, E414H, K481E counted along it

O=P(O)(O)O[C@H]1[C@H](OP(=O)(O)O)[C@@H](OP(=O)(O)O)[C@H](OP(=O)(O)O)[C@@H](OP(=O)(O)O)[C@H]1OP(=O)(O)O [IP6, inositol hexaphosphate]
interaction with IP6 as measured by ITC [1]: no interaction | interaction with IP6 as measured by ITC [2]: no interaction | further thermal stabilization by IP6 [3]: not further stabilized | effect on end-joining of a linear plasmid substrate and DNA-PK dependent phosphorylation of XLF (c-NHEJ; human cell extracts): stimulated | effect on c-NHEJ (c-NHEJ; human whole-cell extracts): stimulate c-NHEJ
